≈ marks a conversion by molar mass, not a printed value.

Data set [1] in a line: Solubility test in various oils. To be noted: for solubility at 24 h: oil or lipid, thermodynamic from solid; for solubility at 24 h / Solubility of Tadalafil: room temperature, 24 hours of stirring. It counts as physicochemical. On the procedure:
Dutasteride and tadalafil were measured for solubility in various oils comprising soybean oil, castor oil, polyoxyl 6 apricot kernel oil, propyleneglycol monolaurate, propyleneglycol monocaprylate, glyceryl caprylate/caprate. In a 10-mL vial, 3 mL of an oil was stirred at room temperature with a magnetic bar during which about 100 mg of the main ingredient was added, followed by stirring at 500 rpm or higher. After 24 hours of stirring, centrifugation was carried out and the supernatant thus formed was taken and subjected to liquid chromatography to quantitate the main ingredient dissolved in the oil phase.

The nature of data set [2]: Solubility test according to surfactant. It counts as physicochemical. The conditions noted are these: for solubility according to surfactants (in words): in PEG 6 glyceryl caprylate/caprate and PEG 8 caprylic/capric glyceride; for solubility at 24 h: organic solvent or mixture, thermodynamic from solid.

In the case of `C[C@]12C=CC(=O)N[C@@H]1CC[C@@H]1[C@@H]2CC[C@]2(C)[C@@H](C(=O)Nc3cc(C(F)(F)F)ccc3C(F)(F)F)CC[C@@H]12` [Dutasteride, 17β-N-(2,5-bis(trifluoromethyl))phenylcarbomoyl-4-aza-5α-androst-1-en-3-one], the solubility at 24 h in data set [1] (in Castor oil, read-out: Solubility of Dutasteride) was 1500 µg/mL (≈ 2.84 mM); in data set [1] (in Glyceryl caprylate/caprate, read-out: Solubility of Dutasteride), 14300 µg/mL (≈ 27.1 mM); in data set [1] (in Polyoxyl 6 apricot kernel oil, read-out: Solubility of Dutasteride) it was 2550 µg/mL (≈ 4.82 mM); in data set [1] (in Propylene glycol monocaprylate, read-out: Solubility of Dutasteride) it was 26300 µg/mL (≈ 49.7 mM); in data set [2] (in PEG 6 glyceryl carpylate/caprate, read-out: Dutasteride Solubility), 3550 µg/mL (≈ 6.72 mM); in data set [2] (in PEG 8 caprylic/capric glyceride, read-out: Dutasteride Solubility), 3860 µg/mL (≈ 7.3 mM). Besides, the solubility at 24 h in data set [2] (in PEG 35 castor oil, read-out: Dutasteride Solubility) was 1990 µg/mL (≈ 3.77 mM); in data set [2] (in Poloxamer 124, read-out: Dutasteride Solubility) it was 1120 µg/mL (≈ 2.12 mM); in data set [2] (in Polysorbate 60, read-out: Dutasteride Solubility), 1770 µg/mL (≈ 3.35 mM); in data set [2] (in Polysorbate 80, read-out: Dutasteride Solubility), 1360 µg/mL (≈ 2.57 mM). In addition, the “solubility according to surfactants (in words)” value in data set [2] is listed as “high solubility”.
Consider `CN1CC(=O)N2[C@H](c3ccc4c(c3)OCO4)c3[nH]c4ccccc4c3C[C@@H]2C1=O` [Tadalafil, 6R-trans-6-(1,3-benzodioxol-5-yl)-2,3,6,7,12,12a-hexahydro-2-methyl-pyrazino [1′,2′:1,6]pyrido[3,4-b]indole-1,4-dione], for which the “Solubility of Tadalafil” value in data set [1] (in Glyceryl caprylate/caprate) was 4130 µg/mL; in data set [1] (in Polyoxyl 6 apricot kernel oil) it was 1120 µg/mL. Moreover, in data set [1] (in glyceryl caprylate/caprate and propylene glycol monocaprylate versus castor oil, soybean oil, polyoxyl 6 apricot kernel oil), the “fold greater solubility than the other oils” value was no less than 4 fold. For the same compound, the solubility at 24 h in data set [1] (in Propylene glycol monocaprylate, read-out: Solubility of Tadalafil) was found to be 4610 µg/mL (≈ 11.8 mM); in data set [2] (in PEG 6 glyceryl carpylate/caprate, read-out: Tadalafil Solubility), 9130 µg/mL (≈ 23.4 mM); in data set [2] (in PEG 8 caprylic/capric glyceride, read-out: Tadalafil Solubility), 8810 µg/mL (≈ 22.6 mM); in data set [2] (in PEG 35 castor oil, read-out: Tadalafil Solubility), 8100 µg/mL (≈ 20.8 mM); in data set [2] (in Poloxamer 124, read-out: Tadalafil Solubility), 6230 µg/mL (≈ 16 mM); in data set [2] (in Polysorbate 60, read-out: Tadalafil Solubility), 10700 µg/mL (≈ 27.6 mM). Also, the solubility at 24 h in data set [2] (in Polysorbate 80, read-out: Tadalafil Solubility) came out at 9650 µg/mL (≈ 24.8 mM). Moreover, the “solubility according to surfactants (in words)” value in data set [2] was “high solubility”.

The values are drawn from patent US20190224195A1, “Oral Capsule Composite Formulation of Dutasteride and Tadalafil” (Yuyu Pharma, Inc., priority 2016, published 2019).
